Results reported in the CheMixHub ionic liquid set.
Several values for one entry are separate records, joined by “and”; a condition that tells them apart may be missing. Identical values can stand only once.

Test: xn = mol fraction of the nth substance listed

CC(=O)[O-].CCCC[n+]1ccn(C)c1 + CCCC[n+]1ccn(C)c1.O=S(=O)([N-]S(=O)(=O)C(F)(F)F)C(F)(F)F
101 kPa
Settings | electrical conductivity [S/m] | viscosity
283.15 K, x2 = 0 | 0.0145 | 1815 mPa·s
283.15 K, x2 = 0.1057 | 0.0213 | 1212 mPa·s
283.15 K, x2 = 0.3662 | 0.0403 | 565 mPa·s
298.15 K, x2 = 0.8097 | 0.28 | 73 mPa·s
303.15 K, x1 = 0.5001 | – | 100 mPa·s
303.15 K, x1 = 0.7497 | – | 161.5 mPa·s
313.15 K, x2 = 0 | 0.138 | 154 mPa·s
313.15 K, x2 = 0.1057 | 0.168 | 128 mPa·s
313.15 K, x2 = 0.3662 | 0.236 | 82 mPa·s
313.15 K, x2 = 0.6541 | 0.387 | 49.4 mPa·s
313.15 K, x2 = 0.8097 | 0.504 | 38.2 mPa·s
314.3 K, x2 = 0 | – | 126 mPa·s and 138 mPa·s
314.3 K, x2 = 0.7282 | 0.474 | 39.2 mPa·s
323.15 K, x1 = 0.7497 | – | 56 mPa·s
333.15 K, x2 = 0.1057 | 0.416 | 47.4 mPa·s

C1COCCO1 + CCCC[n+]1ccn(C)c1.F[B-](F)(F)F
Settings | viscosity [mPa·s]
298.15 K, 100 kPa, x2 = 0 | 1.18

CC1COC(=O)O1 (stereo not given) + CC[n+]1ccn(C)c1C.O=S(=O)([N-]S(=O)(=O)C(F)(F)F)C(F)(F)F
101.3 kPa, x2 = 0
Settings | viscosity [mPa·s]
308.15 K | 2.049
348.15 K | 1.14

CCCC[n+]1ccn(C)c1.F[B-](F)(F)F + CN(C)C=O
Settings | viscosity [mPa·s]
293.15 K, 101 kPa, x1 = 0.08 | 3.1
298.15 K, 101 kPa, x1 = 0.74 | 42.5
298.15 K, 101 kPa, x1 = 0.83 | 62.4
298.15 K, 101 kPa, x1 = 0.94 | 88
298.15 K, 101.33 kPa, x2 = 0.1024 | 78
303.15 K, 100 kPa, x1 = 0.1008 | 1.497
303.15 K, 101 kPa, x1 = 0.94 | 74
308.15 K, 101 kPa, x1 = 0.43 | 5.71
313.15 K, 100 kPa, x1 = 0.8015 | 25.47
313.15 K, 100 kPa, x1 = 1 | 53.84
313.15 K, 101 kPa, x1 = 0.16 | 2.45
313.15 K, 101 kPa, x1 = 0.74 | 18.5
318.15 K, 101 kPa, x1 = 0.08 | 1.42
318.15 K, 101 kPa, x1 = 0.55 | 1.67
318.15 K, 101 kPa, x1 = 0.74 | 12
323.15 K, 100 kPa, x1 = 0.3022 | 2.993
323.15 K, 100 kPa, x1 = 0.7019 | 14.07
323.15 K, 101 kPa, x1 = 0.08 | 1.19
323.15 K, 101 kPa, x1 = 0.74 | 6.8
323.15 K, 101 kPa, x1 = 0.94 | 26.6
333.15 K, 100 kPa, x1 = 0.7019 | 10.75

CC(=O)[O-].C[NH+]1CCCC1 + CC(=O)[O-].Cn1cc[nH+]c1
298.15 K, 100 kPa
Settings | viscosity [mPa·s]
x2 = 0 | 3.78
x2 = 0.1 | 4.87
x2 = 0.19 | 5.35
x2 = 0.31 | 6.23
x2 = 0.4 | 6.46
x2 = 0.5 | 6.78
x2 = 0.59 | 6.74
x2 = 0.71 | 6.59
x2 = 0.8 | 6.47

CC[n+]1ccn(C)c1.N#C[N-]C#N + OCC(F)(F)F + CCO
viscosity [mPa·s], 100 kPa
Settings | 298.15 K | 303.15 K | 308.15 K | 313.15 K | 318.15 K
x1 = 0.0355, x2 = 0.8508 | – | 0.27 | 0.22 | 0.16 | 0.15
x1 = 0.0692, x2 = 0.8058 | 0.93 | 0.78 | 0.7 | 0.61 | 0.57
x1 = 0.1059, x2 = 0.7569 | 1.52 | 1.32 | 1.19 | 1.07 | 1
x1 = 0.1341, x2 = 0.7174 | 1.96 | 1.71 | 1.55 | 1.41 | 1.31
x1 = 0.1703, x2 = 0.668 | 2.49 | 2.19 | 1.99 | 1.82 | –
x1 = 0.2026, x2 = 0.6226 | 2.94 | 2.59 | 2.36 | 2.16 | –
x1 = 0.2373, x2 = 0.574 | 3.4 | 3.01 | 2.74 | 2.51 | –
x1 = 0.2705, x2 = 0.5266 | 3.82 | 3.39 | 3.09 | 2.82 | –
x1 = 0.3059, x2 = 0.4761 | 4.24 | 3.77 | 3.43 | 3.14 | –
x1 = 0.3367, x2 = 0.4558 | 4.59 | 4.1 | 3.72 | 3.39 | –
x1 = 0.3741, x2 = 0.4288 | 5 | 4.47 | 4.05 | 3.69 | –
x1 = 0.4093, x2 = 0.4055 | 5.37 | 4.8 | 4.35 | 3.95 | –
x1 = 0.4361, x2 = 0.3894 | 5.63 | 5.04 | 4.56 | 4.14 | –
x1 = 0.4751, x2 = 0.3581 | 6.01 | 5.38 | 4.86 | 4.41 | –
x1 = 0.5091, x2 = 0.3393 | 6.33 | 5.67 | 5.11 | 4.62 | –
x1 = 0.539, x2 = 0.314 | 6.6 | 5.91 | 5.32 | 4.81 | –
x1 = 0.576, x2 = 0.2854 | 6.92 | 6.19 | 5.57 | 5.03 | –
x1 = 0.6046, x2 = 0.2689 | 7.16 | 6.41 | 5.75 | 5.19 | –
x1 = 0.6344, x2 = 0.2517 | 7.42 | 6.62 | 5.94 | 5.36 | –
x1 = 0.673, x2 = 0.2236 | 7.74 | 6.9 | 6.18 | 5.57 | –
x1 = 0.7094, x2 = 0.2009 | 8.04 | 7.15 | 6.4 | 5.77 | –
x1 = 0.7331, x2 = 0.1948 | 8.23 | 7.31 | 6.54 | 5.9 | –
x1 = 0.7722, x2 = 0.1661 | 8.55 | 7.57 | 6.77 | 6.11 | –
x1 = 0.8061, x2 = 0.1434 | 8.84 | 7.79 | 6.97 | 6.29 | –

O + CCCCCCCCCCCCCCCC[n+]1ccccc1.[Cl-]
Settings | electrical conductivity [S/m]
308.15 K, 101 kPa, x2 = 0 | 6.7e-05

CCCC[n+]1ccn(C)c1.F[B-](F)(F)F + CO
101 kPa
Settings | electrical conductivity [S/m] | viscosity [mPa·s]
298.1 K, x1 = 0.007405 | 0.598 | –
298.1 K, x1 = 0.03422 | 1.35 | –
303.15 K, x2 = 0.6004 | – | 5.98
313.15 K, x2 = 0 | – | 53
313.15 K, x2 = 0.1003 | – | 36.1
313.15 K, x2 = 0.2047 | – | 24.26
313.15 K, x2 = 0.7997 | – | 1.778
313.15 K, x2 = 0.9001 | – | 0.993
323.15 K, x2 = 0.1003 | – | 25.42
323.15 K, x2 = 0.6004 | – | 4.07
333.15 K, x2 = 0.3996 | – | 7.23

CCCCCCCCO + CCCC[n+]1ccn(C)c1.O=S(=O)([N-]S(=O)(=O)C(F)(F)F)C(F)(F)F
100 kPa
Settings | electrical conductivity, x2 = 0.03335 [S/m] | viscosity, x2 = 0 [mPa·s] | viscosity, x2 = 0.8499 [mPa·s] | viscosity, x2 = 0.8986 [mPa·s]
294.5 K | 0.02 | – | – | –
298 K | – | 7.614 | 37.77 | 40.18

O + CCCCCCCCCCCCOS(=O)(=O)[O-].[Na+] + CCCCCCCCCCCCCCCC[N+](C)(C)C.[Br-]
Settings | electrical conductivity [S/m]
298.15 K, 101 kPa, frequency 0.001 MHz, x2 = 0, x3 = 0 | 0.000321
